Measured values: US20250230154A1, “COMPOUND HAVING SHP2 PROTEIN DEGRADING ACTIVITY, AND MEDICAL USES THEREOF” (UBIX THERAPEUTICS, INC., priority 2021, published 2025)

Target: T1, SHP2 protein (Homo sapiens, UniProt Q06124)
T1 sequence (Q06124 1-593): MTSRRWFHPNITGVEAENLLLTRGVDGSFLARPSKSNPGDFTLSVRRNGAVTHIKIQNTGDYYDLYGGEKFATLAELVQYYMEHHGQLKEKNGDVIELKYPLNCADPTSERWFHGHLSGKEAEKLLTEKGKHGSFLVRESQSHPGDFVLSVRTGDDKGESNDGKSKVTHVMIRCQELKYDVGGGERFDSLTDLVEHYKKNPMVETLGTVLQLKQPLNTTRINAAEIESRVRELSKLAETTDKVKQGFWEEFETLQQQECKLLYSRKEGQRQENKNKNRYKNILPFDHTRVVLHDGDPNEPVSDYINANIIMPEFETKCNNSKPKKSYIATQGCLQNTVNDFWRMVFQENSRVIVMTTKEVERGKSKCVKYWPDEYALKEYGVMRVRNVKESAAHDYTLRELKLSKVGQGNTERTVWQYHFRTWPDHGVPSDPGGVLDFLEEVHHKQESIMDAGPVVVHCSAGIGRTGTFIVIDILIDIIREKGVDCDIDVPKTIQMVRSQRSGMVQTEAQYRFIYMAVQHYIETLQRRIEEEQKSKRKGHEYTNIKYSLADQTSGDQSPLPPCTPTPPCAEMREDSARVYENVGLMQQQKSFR
Assay: Measurement of SHP2 protein degradation in MV-4-11 cells (western blotting)
Assay type: cell-based
Design: endogenous in cells; host or cells: MV-4-11
Conditions: for SHP2 protein degradation activity (in words): comment on Table 4
Method in brief: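 SHP2 protein levels were assessed by western blotting in MV-4-11 cells after a 24 hour compound treatment. Lysates were sonicated, centrifuged, normalized by BCA assay at 562 nm, run on Bis-tris 4-12% gels, transferred to NC membrane, probed with anti-SHPTP2 (70 kDa) and anti-GAPDH (37 kDa) antibodies, and detected on LI-COR Odyssey.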

| SHP2 degradation (%) 10 nM (MV-4-11 cells, 24 hours) [%] | SHP2 degradation (%) 100 nM (MV-4-11 cells, 24 hours) [%] | SHP2 protein degradation activity (in words) | SHP2 degradation (%) 1000 nM (MV-4-11 cells, 1000 nM, 24 hours) [%] | Structure (SMILES) |
| --- | --- | --- | --- | --- |
| 0.1 | 52.3 | somewhat decreased | – | Cc1ncsc1-c1ccc(CNC(=O)[C@@H]2C[C@@H](O)CN2C(=O)[C@@H](NC(=O)C2(F)CC2)C(C)(C)C)c(OCC2CCN(C(=O)C3(C(=O)Nc4cccc(Sc5cnc(N6CCC(C)(CN)CC6)cn5)c4Cl)CC3)CC2)c1 [Example 46, (2S,4R)—N-(2-((1-(1-((3-((5-(4-(aminomethyl)-4-methylpiperidin-1-yl)pyrazin-2-yl)thio)-2-chlorophenyl)carbamoyl)cyclopropane-1-carbonyl)piperidin-4-yl)methoxy)-4-(4-methylthiazol-5-yl)benzyl)-1-((S)-2-(1-fluorocyclopropane-1-carboxamido)-3,3-dimethylbutanoyl)-4-hydroxypyrrolidine-2-carboxamide] |
| −2.5 | 21.1 | somewhat decreased | – | Cc1ncsc1-c1ccc(CNC(=O)[C@@H]2C[C@@H](O)CN2C(=O)[C@@H](NC(=O)C2(F)CC2)C(C)(C)C)c(OCCC2CCN(C(=O)C3(C(=O)Nc4cccc(Sc5cnc(N6CCC(C)(CN)CC6)cn5)c4Cl)CC3)CC2)c1 [Example 47, (2S,4R)—N-(2-(2-(1-(1-((3-((5-(4-(aminomethyl)-4-methylpiperidin-1-yl)pyrazin-2-yl)thio)-2-chlorophenyl)carbamoyl)cyclopropane-1-carbonyl)piperidin-4-yl)ethoxy)-4-(4-methylthiazol-5-yl)benzyl)-1-((S)-2-(1-fluorocyclopropane-1-carboxamido)-3,3-dimethylbutanoyl)-4-hydroxypyrrolidine-2-carboxamide] |
| 18.6 | 57.3 | somewhat decreased | – | Cc1ncsc1-c1ccc(CNC(=O)[C@@H]2C[C@@H](O)CN2C(=O)[C@@H](NC(=O)C2(F)CC2)C(C)(C)C)c(OCCCC2CCN(C(=O)C3(C(=O)Nc4cccc(Sc5cnc(N6CCC(C)(CN)CC6)cn5)c4Cl)CC3)CC2)c1 [Example 48, (2S,4R)—N-(2-(3-(1-(1-((3-((5-(4-(aminomethyl)-4-methylpiperidin-1-yl)pyrazin-2-yl)thio)-2-chlorophenyl)carbamoyl)cyclopropane-1-carbonyl)piperidin-4-yl)propoxy)-4-(4-methylthiazol-5-yl)benzyl)-1-((S)-2-(1-fluorocyclopropane-1-carboxamido)-3,3-dimethylbutanoyl)-4-hydroxypyrrolidine-2-carboxamide] |
| 4.0 | 10.6 | somewhat decreased | – | Cc1ncsc1-c1ccc(CNC(=O)[C@@H]2C[C@@H](O)CN2C(=O)[C@@H](NC(=O)C2(F)CC2)C(C)(C)C)c(OCCC2CCN(C(=O)C(C)(C)C(=O)Nc3cccc(Sc4cnc(N5CCC(C)(CN)CC5)cn4)c3Cl)CC2)c1 [Example 49, (2S,4R)—N-(2-(2-(1-(3-((3-((5-(4-(aminomethyl)-4-methylpiperidin-1-yl)pyrazin-2-yl)thio)-2-chlorophenyl)amino)-2,2-dimethyl-3-oxopropanoyl)piperidin-4-yl)ethoxy)-4-(4-methylthiazol-5-yl)benzyl)-1-((S)-2-(1-fluorocyclopropane-1-carboxamido)-3,3-dimethylbutanoyl)-4-hydroxypyrrolidine-2-carboxamide] |
| 91.5 | 98.4 | – | – | Cc1ncsc1-c1ccc(CNC(=O)[C@@H]2C[C@@H](O)CN2C(=O)[C@@H](NC(=O)C2(F)CC2)C(C)(C)C)c(OC2CC3(CCN(C(=O)CC(=O)Nc4cccc(Sc5cnc(N6CCC(C)(CN)CC6)cn5)c4Cl)CC3)C2)c1 [Example 50, (2S,4R)—N-(2-((7-(3-((3-((5-(4-(aminomethyl)-4-methylpiperidin-1-yl)pyrazin-2-yl)thio)-2-chlorophenyl)amino)-3-oxopropanoyl)-7-azaspiro[3.5]nonan-2-yl)oxy)-4-(4-methylthiazol-5-yl)benzyl)-1-((S)-2-(1-fluorocyclopropane-1-carboxamido)-3,3-dimethylbutanoyl)-4-hydroxypyrrolidine-2-carboxamide] |
| 4.7 | 74.1 | – | – | Cc1ncsc1-c1ccc(CNC(=O)[C@@H]2C[C@@H](O)CN2C(=O)[C@@H](NC(=O)C2(F)CC2)C(C)(C)C)c(OC2CC3(CCN(C(=O)CC(=O)N(C)c4cccc(Sc5cnc(N6CCC(C)(CN)CC6)cn5)c4Cl)CC3)C2)c1 [Example 51, (2S,4R)—N-(2-((7-(3-((3-((5-(4-(aminomethyl)-4-methylpiperidin-1-yl)pyrazin-2-yl)thio)-2-chlorophenyl)(methyl)amino)-3-oxopropanoyl)-7-azaspiro[3.5]nonan-2-yl)oxy)-4-(4-methylthiazol-5-yl)benzyl)-1-((S)-2-(1-fluorocyclopropane-1-carboxamido)-3,3-dimethylbutanoyl)-4-hydroxypyrrolidine-2-carboxamide] |
| 72 | 96 | – | 94.5 | Cc1ncsc1-c1ccc(CNC(=O)[C@@H]2C[C@@H](O)CN2C(=O)[C@@H](NC(=O)C2(F)CC2)C(C)(C)C)c(OCCN2CCN(C(=O)CC(=O)Nc3cccc(Sc4cnc(N5CCC(C)(CN)CC5)cn4)c3Cl)CC2)c1 [Example 52, (2S,4R)—N-(2-(2-(4-(3-((3-((5-(4-(aminomethyl)-4-methylpiperidin-1-yl)pyrazin-2-yl)thio)-2-chlorophenyl)amino)-3-oxopropanoyl)piperazin-1-yl)ethoxy)-4-(4-methylthiazol-5-yl)benzyl)-1-((S)-2-(1-fluorocyclopropane-1-carboxamido)-3,3-dimethylbutanoyl)-4-hydroxypyrrolidine-2-carboxamide] |
| 83.9 | 97.8 | – | – | Cc1ncsc1-c1ccc(CNC(=O)[C@@H]2C[C@@H](O)CN2C(=O)[C@@H](NC(=O)C2(F)CC2)C(C)(C)C)c(OCCN2CCN(C(=O)CC(=O)Nc3cccc(Sc4cnc(N5CCC(C)(N)CC5)cn4)c3Cl)CC2)c1 [Example 53, (2S,4R)—N-(2-(2-(4-(3-((3-((5-(4-amino-4-methylpiperidin-1-yl)pyrazin-2-yl)thio)-2-chlorophenyl)amino)-3-oxopropanoyl)piperazin-1-yl)ethoxy)-4-(4-methylthiazol-5-yl)benzyl)-1-((S)-2-(1-fluorocyclopropane-1-carboxamido)-3,3-dimethylbutanoyl)-4-hydroxypyrrolidine-2-carboxamide] |
| 85.8 | 98.3 | – | – | Cc1ncsc1-c1ccc(CNC(=O)[C@@H]2C[C@@H](O)CN2C(=O)[C@@H](NC(=O)C2(F)CC2)C(C)(C)C)c(OCCN2CCN(C(=O)CC(=O)Nc3cccc(Sc4ncc(N5CCC(C)(N)CC5)nc4N)c3Cl)CC2)c1 [Example 54, (2S,4R)—N-(2-(2-(4-(3-((3-((3-amino-5-(4-amino-4-methylpiperidin-1-yl)pyrazin-2-yl)thio)-2-chlorophenyl)amino)-3-oxopropanoyl)piperazin-1-yl)ethoxy)-4-(4-methylthiazol-5-yl)benzyl)-1-((S)-2-(1-fluorocyclopropane-1-carboxamido)-3,3-dimethylbutanoyl)-4-hydroxypyrrolidine-2-carboxamide] |
| 85.9 | 97.8 | – | – | Cc1ncsc1-c1ccc(CNC(=O)[C@@H]2C[C@@H](O)CN2C(=O)[C@@H](NC(=O)C2(F)CC2)C(C)(C)C)c(OCCN2CCN(C(=O)CC(=O)Nc3cccc(Sc4ncc(N5CCC(C)(CN)CC5)nc4N)c3Cl)CC2)c1 [Example 55, (2S,4R)—N-(2-(2-(4-(3-((3-((3-amino-5-(4-(aminomethyl)-4-methylpiperidin-1-yl)pyrazin-2-yl)thio)-2-chlorophenyl)amino)-3-oxopropanoyl)piperazin-1-yl)ethoxy)-4-(4-methylthiazol-5-yl)benzyl)-1-((S)-2-(1-fluorocyclopropane-1-carboxamido)-3,3-dimethylbutanoyl)-4-hydroxypyrrolidine-2-carboxamide] |
| 91.4 | 98.9 | – | – | Cc1ncsc1-c1ccc(CNC(=O)[C@@H]2C[C@@H](O)CN2C(=O)[C@@H](NC(=O)C2CC2)C(C)(C)C)c(OCCN2CCN(C(=O)CC(=O)Nc3cccc(Sc4cnc(N5CCC(C)(CN)CC5)cn4)c3Cl)CC2)c1 [Example 56, (2S,4R)—N-(2-(2-(4-(3-((3-((5-(4-(aminomethyl)-4-methylpiperidin-1-yl)pyrazin-2-yl)thio)-2-chlorophenyl)amino)-3-oxopropanoyl)piperazin-1-yl)ethoxy)-4-(4-methylthiazol-5-yl)benzyl)-1-((S)-2-(cyclopropanecarboxamido)-3,3-dimethylbutanoyl)-4-hydroxypyrrolidine-2-carboxamide] |
